In general, IC50 refers to the midpoint of a concentration-inhibition curve. Usually Ki stands for the equilibrium dissociation constant of an inhibitor or competing ligand from its target. Broadly, the inhibition is how much of the control response was suppressed. Lower therefore signals little suppression.

This note sets out measurements from patent US11459295B2, “2-beta-naphthyl-acetic acid analogs as AKR1C3 inhibitors and methods of using same” (THE TRUSTEES OF THE UNIVERSITY OF PENNSYLVANIA, priority 2015, dated 2022).

“And” between values parts separate entries of the source, which are not always exact repeats. Equal values may be shown once. Bounds are passed on as bounds.

In experiment [1] the target is T1, AKR1C2 (Homo sapiens (Human), UniProt P52895). Description: S-tetralol oxidation assay, AKR1C2. Particulars: NADP+ dependent oxidation of S-tetralol, S-tetralol at Km; Table 1. The experiment is classed as biochemical. The method, then:
Enzyme Purification: Homogenous recombinant enzymes AKR1C1-4 were prepared and purified (Burczynski, et al., 1998, Biochemistry 37:6781-6790). Enzymes were purified to constant specific activity and their purity established by SDS-PAGE. All AKR enzymes were stored at −80° C. in 20 mM potassium phosphate buffer pH 7.0 containing 30% glycerol, 1 mM EDTA, and 1 mM β-mercaptoethanol. Under standard assay conditions, the specific activity of AKR1C1 for the NAD^+ dependent oxidation of 1-acenaphthenol (Sigma) was 2.0 μmol min^−1 mg^−1. The specific activities of AKR1C2 and AKR1C3 for the NAD^+ dependent oxidation of S-tetralol (Sigma) were 1.5 and 2.0 μmol min^−1 mg^−1, respectively, and the specific activity of AKR1C4 for the NAD^+ dependent oxidation of androsterone (Steraloids) was 0.3 μmol min^−1 mg^−1. The specific activities of AKR1C enzymes were determined by measuring the formation of NADH at 340 nm using a Beckman DU640 spectrophotometer. A typical assay solution contained 100 mM potassium phosphate pH 7.0, 2.3 mM NAD^+, 200 μM 1-acenaphthenol for AKR1C1, 3.0 mM Stetralol for AKR1C2 and 1C3, and 75 μM androsterone for AKR1C4, 4% acetonitrile (v/v). The mixtures were incubated at 25° C. (AKR1C1 and 1C4) or 37° C. (AKR1C2 and 1C3) for 3 min, followed by adding a serial dilution of enzyme solution to a final volume of 1 mL to initiate the reaction. After continuously monitoring for 5 min, the increase in UV absorption using different concentrations of enzyme were recorded to calculate the initial velocity of substrate oxidation and determine enzyme-specific activity.
the inhibitory potency of the individual compounds against the AKR1C isoforms was determined by monitoring the NADP^+ dependent oxidation of S-tetralol catalyzed by the AKR1C enzymes using substrate concentrations at their Km values in the presence and absence of varying concentration of the inhibitors (Adeniji, et al., 2012, J Med Chem 55:2311-2323). Reaction systems (200 μL) contained 100 mM potassium phosphate buffer (pH 7.0), 4% DMSO, 200 μM NADP^+, a serial dilution of compounds, S-tetralol, and AKR1C enzymes. […] The concentration of AKR1C1, 1C2, 1C3, and 1C4 was 111, 86, 95, and 552 nM, respectively. Reagents were mixed and incubated at 37° C. for 10 min followed by adding AKR1C enzymes to initiate the reaction. […] To determine the pattern of inhibition, five fixed concentrations of S-tetralol were used and four different concentrations of inhibitor were used and a gobal fit of the equations for COMP, NONCOMP and UNCOMP to the data was applied using Grafit.

The target of experiment [2] is T2, AKR1C3 (Homo sapiens (Human), UniProt P42330). Description: S-tetralol oxidation assay, AKR1C3. The experiment is classed as biochemical. The method, then:
Enzymes were purified to constant specific activity and their purity established by SDS-PAGE. All AKR enzymes were stored at −80° C. in 20 mM potassium phosphate buffer pH 7.0 containing 30% glycerol, 1 mM EDTA, and 1 mM β-mercaptoethanol. […] The specific activities of AKR1C enzymes were determined by measuring the formation of NADH at 340 nm using a Beckman DU640 spectrophotometer. […] The mixtures were incubated at 25° C. (AKR1C1 and 1C4) or 37° C. (AKR1C2 and 1C3) for 3 min, followed by adding a serial dilution of enzyme solution to a final volume of 1 mL to initiate the reaction. After continuously monitoring for 5 min, the increase in UV absorption using different concentrations of enzyme were recorded to calculate the initial velocity of substrate oxidation and determine enzyme-specific activity.
Reagents were mixed and incubated at 37° C. for 10 min followed by adding AKR1C enzymes to initiate the reaction. […] To determine the pattern of inhibition, five fixed concentrations of S-tetralol were used and four different concentrations of inhibitor were used and a gobal fit of the equations for COMP, NONCOMP and UNCOMP to the data was applied using Grafit.

In experiment [3] the target is AKR1C1 (Homo sapiens (Human), UniProt Q04828). In words: S-tetralol oxidation assay, AKR1C1. The experiment is classed as biochemical.
Experiment [4] has as its target T1, AKR1C2. Description: AKR1C2 catalyzed NADPH dependent reduction of 5α-DHT. Particulars: 5α-DHT reduction, <100 μM concentrations. The experiment is classed as biochemical.
Method: Compounds were tested for their ability to inhibit the AKR1C3 catalyzed, reduction of [^3H]-Δ^4-AD and the AKR1C2 catalyzed reduction of [^3H]-5α-DHT. Compounds were incubated with purified recombinant enzyme and radiolabeled steroid in 100 mM phosphate buffer pH7.0 and 4% DMSO at 37° C. The reaction was initiated by the addition of 1 mM NADPH, aliquots were removed over time and subsequently quenched by the addition of ice cold ethyl acetate. The ethyl acetate fraction was extracted and dried in vacuum. Steroid reference standards and extracts were dissolved in 50 μl ethyl acetate and applied to LK6D Silica TLC plates (Whatman Inc., Clifton, N.J.). TLC plates were developed using a dichloromethane/ethyl acetate (80:20 v/v) solution and were scanned with a Bioscan System 200 plate reader (Washington, D.C.). The percentage of radioactivity in the product peak was calculated assuming that the combined radioactivity in the substrate and product peaks was 100%. Initial velocities were computed by converting the percentage of radioactivity in the product peak by the specific radioactivity of the starting material to generate pmoles/min.
The test system of experiment [5] is LNCaP-AKR1C3 cells. Description: Radiometric assay of androgen metabolism. Particulars: 100 nM Δ4-AD, 30 μM compound, 48 h. The experiment is classed as cell-based. The method, then:
LNCaP-AKR1C3 cells seeded at a density of 1.5×10^6 cells were plated in 6 well plates in CSS media. The cells were allowed to incubate for 24 h, after which the media was aspirated and fresh CSS media with 7.5 nM (1.26 μCi) of [^3H] Δ^4-AD and 92.5 nM of cold Δ^4-AD (to obtain a final concentration of 100 nM) was added in the presence and absence of 30 μM of compound 8a in each well. The cells were incubated for 48 h, after which time the media was collected for analysis (Byrns, et al., 2012, J. Steroid. Biochem. & Mol. Biol. 130:7-15). The media was extracted twice with cold ethyl acetate. In order to determine radioactivity of each phase, a portion of each fraction was added to Ultima Gold (Perkin Elmer Life Sciences) scintillation fluid and analyzed on a TriCarb 2100 (Packard Instruments, Perkin Elmer Life Sciences), all CPM counts were blank-adjusted and reported as corrected cpm. The aqueous phases were acidified to pH 6.5 with acetic acid and subjected to treatment with 400 U of E. coli β-glucuronidase at 37° C. for 24 h. The de-conjugated androgens were re-extracted as described elsewhere herein, dried in vacuum and re-dissolved in 100 μL ethyl acetate for separation on the multi-channel LK6D Silica TLC plates. Plates were developed using dichloromethane/ethyl acetate (80:20 v/v) and scanned on the BioScan 200 plate reader.

In experiment [6] the test system is LNCaP-AKR1C3 cells. Description: Western blot of Δ4-AD induced PSA expression. Particulars: 100 nM Δ4-AD, 30 μM compound. The experiment is classed as cell-based. The method, then: LNCaP cells stably expressing AKR1C3 (LNCaP-AKR1C3 cells) (Byrns, et al., 2012, J. Steroid. Biochem. & Mol. Biol. 130:7-15) seeded at a density of 1.5×10^6 cells were plated in 6 cm dishes containing phenol red free RPMI-1640 media supplemented with 5% CDFBS, 1% Pen/Strep and 2 mM L-Glutamine (CSS media). The cells were incubated for 24 h after which media was aspirated and fresh CSS media containing 100 nM Δ^4-AD plus and minus inhibitors. The cells were incubated for 24 h after which they were harvested in RIPA lysis buffer supplemented with protease inhibitors at 4° C. Lysate protein concentration was determined by the Bradford assay using the BIORAD protein dye (Bio-Rad). The samples were subjected to electrophoresis on a 12% SDS-PAGE gel that was subsequently transferred to a nitrocellulose membrane. The membrane was probed with the appropriate antibodies as follows; anti β-tubulin (Millipore, #05-661) anti-PSA (Meridian Life Science, Inc., #K92110R). Blots were imaged using the ECL reagent (Pierce) and GelDoc XR+ System and Image Lab software (Bio-Rad).

Experiment [7] concerns the target T2, AKR1C3. In words: AKR1C3 catalyzed reduction of Δ4-AD. The experiment is classed as biochemical. Particulars: E.NADPH.I complex; read-out: Ki, competitive inhibition of AKR1C3 catalyzed reduction of Δ4-AD. An excerpt:
The ethyl acetate fraction was extracted and dried in vacuum.

Experiment [8] deals with COX-1 (Ovis aries (Sheep), UniProt P05979). Description: COX-1 assay (TMPD oxidation). The experiment is classed as biochemical, ram. The method, then:
The purity of the enzyme was assessed by SDS-PAGE. […] Reagents were mixed and incubated at 25° C. for 5 min followed by adding a mixture of TMPD and arachidonic acid to initiate the reaction. Specific activity was determined based on the initial velocity of the reduction of PGG2 formed in the reaction.
The effect of the compounds on COX-1 activity was determined by a continuous colorimetric assay that monitored the oxidation of N, N, N, N-tetramethyl-1,4-phenylenediamine (TMPD) when coupled to the COX catalyzed formation of PGH2 from PGG2 using arachidonic acid as substrate. […] Reagents were mixed and incubated at 25° C. for 5 min followed by adding a mixture of TMPD and arachidonic acid to initiate the reaction.

In experiment [9] the target is COX-2 (Mus musculus, UniProt Q05769). Description: COX-2 inhibition. The experiment is classed as biochemical.
[10] abbreviates: NADP+ dependent oxidation of S-tetralol, S-tetralol at Km, Table 1.
Setting [11] is: highest inhibitor concentration (100 μM) tested.

T2 sequence (P42330 whole entry): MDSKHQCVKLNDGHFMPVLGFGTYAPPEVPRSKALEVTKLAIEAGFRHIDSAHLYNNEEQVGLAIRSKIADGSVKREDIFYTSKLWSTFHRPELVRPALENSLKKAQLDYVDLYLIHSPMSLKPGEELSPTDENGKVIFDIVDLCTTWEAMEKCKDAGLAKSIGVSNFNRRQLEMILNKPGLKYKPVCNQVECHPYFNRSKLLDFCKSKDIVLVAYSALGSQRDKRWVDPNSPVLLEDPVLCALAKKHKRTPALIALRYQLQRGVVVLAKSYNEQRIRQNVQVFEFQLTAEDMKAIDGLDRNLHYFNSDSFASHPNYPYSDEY
Sequence of COX-1 (P05979 25-600): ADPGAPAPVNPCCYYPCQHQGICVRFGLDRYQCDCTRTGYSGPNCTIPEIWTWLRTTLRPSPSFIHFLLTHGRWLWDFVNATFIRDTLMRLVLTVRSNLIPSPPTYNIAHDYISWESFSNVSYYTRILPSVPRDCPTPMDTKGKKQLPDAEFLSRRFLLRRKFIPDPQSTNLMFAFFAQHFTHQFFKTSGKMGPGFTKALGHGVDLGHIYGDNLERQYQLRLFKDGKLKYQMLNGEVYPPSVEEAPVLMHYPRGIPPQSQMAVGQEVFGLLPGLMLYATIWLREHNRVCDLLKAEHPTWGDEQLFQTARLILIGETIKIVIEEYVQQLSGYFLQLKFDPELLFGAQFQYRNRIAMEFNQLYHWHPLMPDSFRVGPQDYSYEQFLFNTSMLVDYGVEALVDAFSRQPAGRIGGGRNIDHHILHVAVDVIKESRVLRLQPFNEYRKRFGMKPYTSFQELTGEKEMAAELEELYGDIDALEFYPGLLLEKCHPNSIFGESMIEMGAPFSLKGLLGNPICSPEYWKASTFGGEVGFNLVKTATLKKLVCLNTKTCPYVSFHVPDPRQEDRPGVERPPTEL
T1 sequence (P52895 whole entry): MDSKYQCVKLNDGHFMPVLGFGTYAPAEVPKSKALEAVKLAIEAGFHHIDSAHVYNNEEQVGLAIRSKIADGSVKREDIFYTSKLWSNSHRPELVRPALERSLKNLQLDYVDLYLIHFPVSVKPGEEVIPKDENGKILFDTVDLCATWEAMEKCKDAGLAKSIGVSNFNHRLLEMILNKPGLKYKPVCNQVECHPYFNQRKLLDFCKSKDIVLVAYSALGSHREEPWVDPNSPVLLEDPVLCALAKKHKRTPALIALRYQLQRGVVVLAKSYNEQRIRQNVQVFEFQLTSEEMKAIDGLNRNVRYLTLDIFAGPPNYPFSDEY
Sequence of COX-2 (Q05769 18-604 limits assumed): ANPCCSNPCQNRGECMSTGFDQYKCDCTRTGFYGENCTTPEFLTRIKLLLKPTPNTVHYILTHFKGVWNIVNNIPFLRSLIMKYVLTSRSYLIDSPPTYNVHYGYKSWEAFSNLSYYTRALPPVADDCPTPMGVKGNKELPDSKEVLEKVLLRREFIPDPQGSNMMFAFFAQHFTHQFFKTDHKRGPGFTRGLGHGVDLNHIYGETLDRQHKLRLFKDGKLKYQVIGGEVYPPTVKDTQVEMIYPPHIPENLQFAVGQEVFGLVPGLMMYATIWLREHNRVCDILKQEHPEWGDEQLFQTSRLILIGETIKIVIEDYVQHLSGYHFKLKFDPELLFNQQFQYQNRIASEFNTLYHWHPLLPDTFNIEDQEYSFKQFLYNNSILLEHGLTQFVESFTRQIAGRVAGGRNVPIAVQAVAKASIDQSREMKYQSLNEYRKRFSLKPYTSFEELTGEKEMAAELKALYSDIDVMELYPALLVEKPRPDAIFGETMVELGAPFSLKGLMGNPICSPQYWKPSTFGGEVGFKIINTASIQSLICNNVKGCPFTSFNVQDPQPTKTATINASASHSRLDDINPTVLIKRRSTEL
Sequence of AKR1C1 (Q04828 whole entry, looked up): as the sequence (P52895 whole entry) above, with V38T, H47R, V54L, S87C, M151V, H170R, L172Q counted along it

Turning to `CCC(C(=O)NS(C)(=O)=O)c1ccc2cc(OC)ccc2c1` (racemic) [LM5885 (±) 7, 2-(6-Methoxynaphthalen-2-yl)-N-(methylsulfonyl)butanamide], the half-inhibitory concentration (IC50) in [1] is 34 µM.
Turning to `CCc1ccc2cc(C(C)C(=O)O)ccc2c1` (racemic) [LM5751(±) 2, 2-(6-Ethylnaphthalen-2-yl)propanoic Acid], the half-maximal inhibitory concentration (IC50) is 0.12 ± 0.0075 µM in experiment [2] (setting [10]) and 1.9 ± 0.11 µM in experiment [1].
Regarding `COc1ccc2cc(C(C)(C)C(=O)O)ccc2c1` [DimethylNaproxen 9, 2-(6-methoxynaphthalen-2-yl)-2-methylpropanoic acid], the concentration for half-maximal inhibition (IC50) in [2] (setting [10]) was 0.27 µM; in experiment [1], 1.32 µM. The “Ratio IC50 value (AKR1C2/AKR1C3)” value in experiment [2] (selectivity for AKR1C3 over AKR1C2, Table 1) is given as 5.
`CC[C@@H](C(=O)O)c1ccc2cc(OC)ccc2c1` [LM5750B 8a, 2(R)-(6-methoxynaphthalen-2-yl)butanoic acid]: the IC50 was 50 µM in experiment [3]; 0.11 ± 0.01 µM in [2] (setting [10]); 46.4 µM and 48.1 µM in [1]; > 100 µM in experiment [8] (arachidonic acid as substrate). Also, the “inhibition of AKR1C2” value in experiment [4] is “did not display any significant inhibition”. Also, the inhibition constant (Ki) amounted to 0.031 µM in [2] (E.NADP+.I complex, read-out: Ki, competitive inhibition of AKR1C3 catalyzed oxidation of S-tetralol) and 0.75 µM in experiment [7]. In experiment [2] (over E.NADPH complex), the “preference for the E.NADP+ complex” value is 20 fold. In experiment [2] (oxidation of S-tetralol), the “pattern of AKR1C3 inhibition” value is given as “competitively inhibited”. Further, the “production of 3H-testosterone glucuronide” value in [5] was “significantly inhibited”. Further, the “Δ4-AD mediated increase in PSA expression” value in [6] is recorded as “inhibited”. Besides, the inhibition at 100 µM in experiment [8] (setting [11]) was < 20%.
On to `CC(C(=O)O)c1ccc2cc([S+](C)[O-])ccc2c1` (racemic) [LM5754(±) 5, 2-(6-(Methylsulfinyl)naphthalen-2-yl)propanoic Acid], for which, in [1], the 50% inhibitory concentration (IC50) was 6.3 ± 0.35 µM.
On the same count and under the same terms, the figure for `CC(C(=O)O)c1ccc2cc(S(C)(=O)=O)ccc2c1` (racemic) [LM5754(±) 6, 2-(6-(Methylsulfonyl)naphthalen-2-yl)propanoic Acid] is 3 ± 0.14 µM.
As for `CSc1ccc2cc(C(C)C(=O)O)ccc2c1` (racemic) [LM5752(±) 4, 2-(6-(Methylthio)naphthalen-2-yl)propanoic Acid], the half-maximal inhibitory concentration (IC50) in [2] (S-tetralol oxidation) is 0.06 µM; in experiment [1], 1.5 ± 0.14 µM. In addition, the “increase in the inhibitory potency for AKR1C3” value in experiment [2] (over naproxen) is 3 fold.
As to `CSc1ccc2cc([C@@H](C)C(=O)O)ccc2c1` [(R)-4a, 2(R)-(6-(methylthio)naphthalen-2-yl)propanoic acid], the IC50 came to 0.05 ± 0.0015 µM in [2] (setting [10]) and 4.35 ± 0.61 µM in [1].
Consider `COc1ccc2cc([C@H](C)C(=O)O)ccc2c1` [S-Naproxen (1), (S)-2-(6-methoxynaphthalen-2-yl)propanoic acid, reference compound], for which the concentration for half-maximal inhibition (IC50) in experiment [1] was 1.26 ± 0.15 µM.
As for `CCOc1ccc2cc(C(C)C(=O)O)ccc2c1` (racemic) [LM5753(±) 3, 2-(6-Ethoxynaphthalen-2-yl)propanoic Acid], the concentration for half-maximal inhibition (IC50) in [2] (setting [10]) is 0.1 ± 0.0076 µM; in experiment [1] it was 2.4 ± 0.24 µM.
The matching figures for `COc1ccc2cc(CC(=O)O)ccc2c1` [DesmethylNaproxen 10, 2-(6-methoxynaphthalen-2-yl)acetic acid]: 0.65 ± 0.11 µM and 19 ± 3.7 µM.
On to `CCC(C(=O)O)c1ccc2cc(OC)ccc2c1` (racemic) [LM5750(±) 8, 2-(6-Methoxynaphthalen-2-yl)butanoic Acid], for which the IC50 in [2] (S-tetralol oxidation) worked out at 0.12 µM; in [1], 7.6 ± 0.95 µM. Further, in experiment [9] (maximum concentration of arachidonic acid tested as substrate (10 μM)), the “inhibitory activity on COX-2” value is given as “no inhibitory activity”.
For the molecule `COc1ccc2cc([C@@H](C)C(=O)O)ccc2c1` [R-Naproxen (1a), reference compound], the IC50 was 2.75 µM in [1] and > 25 µM in experiment [9] (Table 2). Besides, the “inhibition of COX-1 activity” value in experiment [8] (setting [11]) is given as “less than 20%”.
